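Where inhibition never reached the appropriate level, the endpoint shown equals the highest concentration tested. Otherwise, values were interpolated linearly from a five-concentration, 48-hour dose response in 96-well plates. The concentration for 50% growth inhibition is given as GI50. At the TGI there is no net growth.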
What was measured:
Assay in all cases: DTP human tumour cell line panel, 48 h
A549 NSCLC = tested on: A549 NSCLC
PC-3 prostate = tested on: PC-3 prostate
IGROV1 ovarian = tested on: IGROV1 ovarian
OVCAR-8 ovarian = tested on: OVCAR-8 ovarian
MDA-MB-435 = tested on: MDA-MB-435
DU-145 prostate = tested on: DU-145 prostate
EKVX NSCLC = tested on: EKVX NSCLC
SK-MEL-28 melanoma = tested on: SK-MEL-28 melanoma
MCF7 breast = tested on: MCF7 breast
TK-10 renal = tested on: TK-10 renal
HCC-2998 colon = tested on: HCC-2998 colon
HT29 colon = tested on: HT29 colon
LOX IMVI melanoma = tested on: LOX IMVI melanoma
NCI-H522 lung = tested on: NCI-H522 lung
KM12 colon = tested on: KM12 colon
OVCAR-5 ovarian = tested on: OVCAR-5 ovarian
NCI/ADR-RES ovarian = tested on: NCI/ADR-RES ovarian
HS 578T breast = tested on: HS 578T breast
HCT-15 colon = tested on: HCT-15 colon
SK-MEL-5 melanoma = tested on: SK-MEL-5 melanoma
NCI-H226 lung = tested on: NCI-H226 lung
SF-268 CNS = tested on: SF-268 CNS
UACC-62 melanoma = tested on: UACC-62 melanoma
MDA-MB-231 breast = tested on: MDA-MB-231 breast
U251 CNS = tested on: U251 CNS
CAKI-1 renal = tested on: CAKI-1 renal
K-562 leukemia = tested on: K-562 leukemia

## O=C(Nc1cc(Cl)ccc1O)c1cccc(NC2=C(Cl)C(=O)N(Cc3ccccc3)C2=O)c1
A549 NSCLC
  GI50: 36.9 µM
  TGI: > 100 µM
PC-3 prostate
  GI50: 19.2 µM
  TGI: 46.1 µM
IGROV1 ovarian
  GI50: 35.4 µM
  TGI: > 100 µM
OVCAR-8 ovarian
  GI50: 14.5 µM
  TGI: 38.8 µM
MDA-MB-435
  GI50: 18.7 µM
  TGI: 38.6 µM
DU-145 prostate
  GI50: 60.7 µM
  TGI: > 100 µM
EKVX NSCLC
  GI50: > 100 µM
  TGI: > 100 µM
SK-MEL-28 melanoma
  GI50: 42.4 µM
  TGI: > 100 µM
MCF7 breast
  GI50: 13.3 µM
  TGI: 36.9 µM
TK-10 renal
  GI50: 37.3 µM
  TGI: 95.5 µM
HCC-2998 colon
  GI50: 17 µM
  TGI: 32.1 µM
HT29 colon
  GI50: 35.9 µM
  TGI: > 100 µM
LOX IMVI melanoma
  GI50: 15.7 µM
  TGI: 32.1 µM
NCI-H522 lung
  GI50: 11.2 µM
  TGI: 26.3 µM
KM12 colon
  GI50: 21.4 µM
  TGI: 52 µM
OVCAR-5 ovarian
  GI50: 45.8 µM
  TGI: > 100 µM
NCI/ADR-RES ovarian
  GI50: 20.7 µM
  TGI: 43.4 µM
HS 578T breast
  GI50: 20.9 µM
  TGI: 49.9 µM
HCT-15 colon
  GI50: 13.3 µM
  TGI: 27.6 µM
SK-MEL-5 melanoma
  GI50: 17 µM
  TGI: 31.5 µM
NCI-H226 lung
  GI50: 17.4 µM
  TGI: 36.6 µM
SF-268 CNS
  GI50: 18.5 µM
  TGI: 38.2 µM
UACC-62 melanoma
  GI50: 31.7 µM
  TGI: > 100 µM
MDA-MB-231 breast
  GI50: 16.8 µM
  TGI: 40.3 µM
U251 CNS
  GI50: 18.2 µM
  TGI: 37.3 µM
CAKI-1 renal
  GI50: 22.5 µM
  TGI: 68 µM
K-562 leukemia
  GI50: 15.2 µM
  TGI: 38.5 µM
